# Measurements reported in patent publication US20190382850A1, “METHOD FOR IDENTIFYING MITOCHONDRIAL DNA IN EXTRACELLULAR VESICLES AND TREATMENT OF MTDNA-RELATED DISORDERS AND CANCER” (Memorial Sloan-Kettering Cancer Center, priority 2017, published 2019).
# What was measured:
# Format in all cases: cell-based, human
# [1] = system: mitochondrial complex protein; assay: Western blot of OXPHOS protein cocktail in HT-treated cells; conditions: fulvestrant; FIG. 11d
# Description: (§1) (Panel a), Representative bright field images of MCF7 po cells±CAF-EVs (3×10^9/weekly for 40 days). Bar graph of number of MS is also reported at the endpoint of the experiment (40 days). (Panel b), HT led to decreased expression of mRNA involved in protein synthesis and OXPHOS signaling with z score and -log (p-values)- as determined by Ingenuity analysis of microarray data from RNA isolated FIG. 5a (MCF7), single P values are also reported. (Panel c), OXPHOS potential determined as changes of respiration rate under mitochondrial stressors by seahorse technology (oligomycin 1 μM, rotenone 100 nM) in cancer cells isolated from FIG. 5b (MCF7, PT1). […] (Panel e), Mitochondrial Complex I/IV activity quantification as determined by nmol/min/mg of protein in luminal breast cancer cell lines from panel a. […]
# For immunoblotting assays, cells were lysed in buffer (50 mmol/L Tris at pH 7.5, 150 mmol/L NaCl, 5 μg/mL aprotinin, pepstatin, 1% NP-40, lmmol/L EDTA, 0.25% deoxycholate, and protease inhibitor cocktail tablet, Sigma). […] The enrichment of CAFs in xenografts was determined by desmin immunohistochemistry (IHC) in tumor-derived sections. […] Viable cells were determined 7-14 days after treatment using trypan blue and cell counting using bright field microscopy or DAPI exclusion staining by flow cytometry (Dako Cytomation). […]
# HTR tumor-derived cells = assay: OXPHOS potential (Seahorse) in FACS sorted tumor-derived cancer cells ± HT; conditions: fulvestrant 10 μM, FIG. 2b
# Description: (§2) (Panel a) Representative tumor growth kinetics (BLI) of GFP+/Luciferase+MCF7 xenografts (n=10) treated with weekly fulvestrant once mammary fat pad tumors were established (after 3 months) which led to a period (4 months) of disease stability on HT (HTS) followed by exponential growth on HT (HTR). Representative H&E images of tumors and primary cultures from unsorted as well as FACS purified cancer cells (GFP+/Epcam+) and murine CAFs (GFP−/Epcam). Scale bar 20 μm. (Panel b) OXPHOS potential in tumor-derived cancer cells (panel a) was measured±HT (fulvestrant, 10 μM) by Seahorse. […] (Panel d) Percentage of metastatic lesions isolated by FACS from tumor-bearing mice (n=8/group) expressing murine mtDNA as determined by ND1 qPCR (2 ng of total DNA). Oxygen consumption rates (OCR) in murine-mtDNApos and ctrl HTR cells determined by Seahorse. (Panel e) Murine mitochondrial RNA expression (12 genes: ND1, ND2, COX2, ATP8, ATP6, COX3, ND3, ND4L, ND4, ND5, ND6, CytB) as fold change (logioscale) determined by qRT-PCR in HTR and HTS cells (panel a). […]
# (§3) Mitochondrial respiration and OXPHOS potential in cells was assessed using Seahorse technology (www.seahorsebio.com)(Qian, W. & Van Houten, B. Alterations in bioenergetics due to changes in mitochondrial DNA copy number. Methods 51, 452-457 (2010)). […]
# HTS cells = assay: as above; conditions: fulvestrant 10 μM, FIG. 2b
# Description: as §2, §3
# [2] = system: mitochondrial complex I and IV; assay: Mitochondrial complex I/IV activity in HT-treated luminal breast cancer cell lines; conditions: fulvestrant; FIG. 11e
# Description: as §1
# To measure mitochondrial complex activity, cell pellets were resuspended in assay buffer (125 mM sucrose, 0.1 mM EDTA, 25 mM Tris-HCl pH 7.5, 0.025% Lauryl-β-D-maltoside), and enzymatic activities were assayed with 0.1-0.4·10^6 cells/ml at 25° C. spectrophotometrically. NADH:HAR reductase activity of Complex I was measured as a decrease in absorption at 340 nm (ε340 nm=6.22 mM-1 cm-1) with 200 μM NADH, 1mM HAR and 1 mM KCN. Complex IV activity was measured as cytochrome oxidation at 550 nm (ε550 nm=21.5 mM-cm-) with 50 μM ferrocytochrome c. […] Protein content was determined with a BCA assay.
compound,measurement,setting,value
C[C@]12CC[C@@H]3c4ccc(O)cc4C[C@@H](CCCCCCCCC[S+]([O-])CCCC(F)(F)C(F)(F)F)[C@H]3[C@@H]1CC[C@@H]2O (stereo partly shown) [fulvestrant],mitochondrial complex protein expression in cells treated with HT,[1],reduced
same,OXPHOS capacity of HTR tumor-derived cells,HTR tumor-derived cells,unaffected
same,OXPHOS potential of HTS cells,HTS cells,inhibited
same,mitochondrial complex I and IV activity in cells treated with HT,[2],reduced
